Assay [1] deals with ERK1/2 phosphorylation in Panc-1 cells. Description: Western ERK1/2 cell-based phosphorylation assay. To be noted: at 10 μM, values in brackets < > are activation %, not inhibition. Also noted: species or system human. The method, boiled down:
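Panc-1 cells starved overnight in 0.5% FBS, then exposed 6 h at 37 °C to compound at 10 μM final (0.3% DMSO) or serial dilutions for IC50. Stimulation with 1.5 ng/ml EGF for 15 min; phospho-ERK1/2 (Thr202/Tyr204) read by western blot on equal protein loads.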

Assay [2] relates to Akt phosphorylation in Panc-1 cells. Description: Western AKT cell-based phosphorylation assay. Also noted: species or system human. To be noted: at 10 μM, values in brackets < > are activation %, not inhibition. The method, boiled down: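 Panc-1 cells starved overnight in 0.5% FBS, exposed to compound at 10 μM (0.3% DMSO) for 6 h at 37° C, then stimulated with 1.5 ng/ml EGF for 15 min. Lysates probed by western blot with anti-phospho-Akt (Ser473), equal protein loading checked by Ponceau S.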

Assay [3] concerns the target KRas wild type (Homo sapiens, UniProt P01116). The assay is described as follows: Ras GTP binding domain inhibition assay (labeled-GTP competition, cell-free). Also noted: made in house. The method, boiled down:
(§1)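 Labeled-GTP competition read out as bound Cy3/Cy5-GTP fluorescence after washes, with 100 nM tracer for 45 min at RT. Before tracer, compounds at 20 μM, or a dilution series for IC50, sat 3 h at RT on the Ni-immobilized His-tagged GTPase. Sos GEF (10-30 μg/mL) was optionally present for the last hour.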

Assay [4] addresses Rac-1 (Homo sapiens, UniProt P63000). Described as above. Also noted: made in house. The procedure, abridged: as §1
Assay [5] has as its target Rho-A (Homo sapiens, UniProt P61586). Described as above. Also noted: made in house. The method, boiled down:
as §1

The mark [6] stands for this setting: with SOS, read-out: KRas wild type + SOS: % inh.
The mark [7] stands for this setting: without SOS, read-out: KRas wild type: % inh.
Setting [8] is: with SOS, read-out: Rac-1 + SOS: % inh.
The mark [9] stands for this setting: without SOS, read-out: Rac-1: % inh.
Setting [10] is: with SOS, read-out: Rho-A + SOS: % inh.
Where [11] appears, read: without SOS, read-out: Rho-A: % inh.

The structures appear in SMILES notation. Read-outs that look alike come from different tables or passages of the source.

`CO[C@H]1CC[C@@H](Nc2nc(-c3nccn3C)nc3sc(-c4cn(C)cn4)c(-c4ccccc4)c23)C1` (racemic) [Example 3, Rac-N-((1R,3S)-3-methoxycyclopentyl)-2-(1-methyl-1H-imidazol-2-yl)-6-(1-methyl-1H-imidazol-4-yl)-5-phenylthieno[2,3-d]pyrimidin-4-amine]: in assay [1], the “% inh of ERK1/2 phosphorylation in PANC-1” value is reported as “A (1-25% inhibition)”. Besides, the “% inh of AKT phosphorylation in PANC-1” value in assay [2] is on record as 0 (0% inhibition). In addition, the inhibition at 20 µM in assay [3] (setting [6]) fell in the range of 76 to 100%; in assay [3] (setting [7]), 51 to 75%; in assay [4] (setting [8]), 76 to 100%; in assay [4] (setting [9]), 76 to 100%; in assay [5] (setting [10]) it was 76 to 100%; in assay [5] (setting [11]), 51 to 75%.
Consider `COc1ccn2c(-c3nc(O)c4scc(-c5ccccn5)c4n3)ncc2c1` [Compound 85, 2-(7-Methoxyimidazo[1,5-a]pyridin-3-yl)-7-(pyridin-2-yl)thieno[3,2-d]pyrimidin-4-ol], for which, in assay [1], the “% inh of ERK1/2 phosphorylation in PANC-1” value was 0 (0% inhibition). Further, in assay [2], the “% inh of AKT phosphorylation in PANC-1” value is recorded as 0 (0% inhibition). Moreover, the inhibition at 20 µM in assay [3] (setting [6]) is 1 to 25%; in assay [3] (setting [7]) it was 51 to 75%; in assay [4] (setting [9]), 51 to 75%; in assay [5] (setting [11]), 51 to 75%.
`COc1ccc2cnc(-c3nc(O)c4scc(-c5ccccn5)c4n3)n2c1` [Compound 86, 2-(6-Methoxyimidazo[1,5-a]pyridin-3-yl)-7-(pyridin-2-yl)thieno[3,2-d]pyrimidin-4-ol]: the “% inh of ERK1/2 phosphorylation in PANC-1” value in assay [1] is reported as 0 (0% inhibition). The “% inh of AKT phosphorylation in PANC-1” value in assay [2] is “B (26-50% inhibition)”. Also, the inhibition at 20 µM in assay [3] (setting [6]) lay in the range of 26 to 50%; in assay [3] (setting [7]) it was 51 to 75%; in assay [4] (setting [9]), 51 to 75%; in assay [5] (setting [11]), 51 to 75%.
Consider `COCCn1c(-c2nc(O)c3scc(-c4ccccn4)c3n2)nc2ccccc21` [Compound 87, 2-(1-(2-Methoxyethyl)-1H-benzo[d]imidazol-2-yl)-7-(pyridin-2-yl)thieno[3,2-d]pyrimidin-4-ol], for which the “% inh of ERK1/2 phosphorylation in PANC-1” value in assay [1] is reported as “A (1-25% inhibition)”. Besides, in assay [2], the “% inh of AKT phosphorylation in PANC-1” value was “<A>”. The inhibition at 20 µM in assay [3] (setting [6]) fell in the range of 1 to 25%; in assay [3] (setting [7]), 26 to 50%; in assay [4] (setting [9]), 51 to 75%; in assay [5] (setting [11]) it was 51 to 75%.
For `Oc1nc(-c2ccncn2)nc2c(-c3ccccn3)csc12` [Compound 88, 7-(Pyridin-2-yl)-2-(pyrimidin-4-yl)thieno[3,2-d]pyrimidin-4-ol], the “% inh of ERK1/2 phosphorylation in PANC-1” value in assay [1] is on record as “<B>”. In addition, the “% inh of AKT phosphorylation in PANC-1” value in assay [2] is “<B>”. For the same compound, the inhibition at 20 µM in assay [3] (setting [6]) lay within 1 to 25%; in assay [3] (setting [7]), 26 to 50%; in assay [4] (setting [9]), 51 to 75%; in assay [5] (setting [11]), 51 to 75%.
`Oc1nc(-c2cccnc2)nc2c(-c3ccccn3)csc12` [Compound 89, 7-(Pyridin-2-yl)-2-(pyridin-3-yl)thieno[3,2-d]pyrimidin-4-ol]: the “% inh of ERK1/2 phosphorylation in PANC-1” value in assay [1] is listed as “A (1-25% inhibition)”. For the same compound, the “% inh of AKT phosphorylation in PANC-1” value in assay [2] is listed as 0 (0% inhibition). Further, the inhibition at 20 µM is 0% in assay [3] (setting [6]), 0% in assay [3] (setting [7]), 0% in assay [4] (setting [9]) and 1 to 25% in assay [5] (setting [11]).
In the case of `Cn1ccc(-c2nc(O)c3scc(-c4ccccn4)c3n2)n1` [Compound 90, 2-(1-Methyl-1H-pyrazol-3-yl)-7-(pyridin-2-yl)thieno[3,2-d]pyrimidin-4-ol], in assay [1], the “% inh of ERK1/2 phosphorylation in PANC-1” value is reported as 0 (0% inhibition). Further, in assay [2], the “% inh of AKT phosphorylation in PANC-1” value is 0 (0% inhibition). Besides, the inhibition at 20 µM was 0% in assay [3] (setting [6]), 0% in assay [3] (setting [7]), 26 to 50% in assay [4] (setting [9]) and 51 to 75% in assay [5] (setting [11]).
With `Cn1nccc1-c1nc(O)c2scc(-c3ccccn3)c2n1` [Compound 91, 2-(1-Methyl-1H-pyrazol-5-yl)-7-(pyridin-2-yl)thieno[3,2-d]pyrimidin-4-ol], the “% inh of ERK1/2 phosphorylation in PANC-1” value in assay [1] is 0 (0% inhibition). The “% inh of AKT phosphorylation in PANC-1” value in assay [2] is on record as 0 (0% inhibition). Also, the inhibition at 20 µM in assay [3] (setting [6]), in assay [3] (setting [7]), in assay [4] (setting [9]) and in assay [5] (setting [11]) was 0% each time.
`Cc1cnc(-c2nc(O)c3scc(-c4ccccn4)c3n2)s1` [Compound 92, 2-(5-Methylthiazol-2-yl)-7-(pyridin-2-yl)thieno[3,2-d]pyrimidin-4-ol]: the “% inh of ERK1/2 phosphorylation in PANC-1” value in assay [1] was 0 (0% inhibition). In addition, the “% inh of AKT phosphorylation in PANC-1” value in assay [2] is 0 (0% inhibition). For the same compound, the inhibition at 20 µM in assay [3] (setting [6]) was in the range of 51 to 75%; in assay [3] (setting [7]) it was 51 to 75%; in assay [4] (setting [9]) it was 76 to 100%; in assay [5] (setting [11]), 76 to 100%.
In the case of `COCCn1ccnc1-c1nc(O)c2scc(-c3ccncc3)c2n1` [Compound 94, 2-(1-(2-Methoxyethyl)-1H-imidazol-2-yl)-7-(pyridin-4-yl)thieno[3,2-d]pyrimidin-4-ol], in assay [1], the “% inh of ERK1/2 phosphorylation in PANC-1” value is 0 (0% inhibition). In addition, in assay [2], the “% inh of AKT phosphorylation in PANC-1” value is 0 (0% inhibition). Also, the inhibition at 20 µM in assay [3] (setting [6]) lay within 51 to 75%; in assay [3] (setting [7]), 51 to 75%; in assay [4] (setting [9]), 76 to 100%; in assay [5] (setting [11]) it was 76 to 100%.
For `COc1nc(-c2nccn2C)nc2c(-c3ncccc3F)csc12` [Compound 95, 7-(3-Fluoropyridin-2-yl)-4-methoxy-2-(1-methyl-1H-imidazol-2-yl)thieno[3,2-d]pyrimidine], the “% inh of ERK1/2 phosphorylation in PANC-1” value in assay [1] is recorded as 0 (0% inhibition). In addition, in assay [2], the “% inh of AKT phosphorylation in PANC-1” value was 0 (0% inhibition). Further, the inhibition at 20 µM in assay [3] (setting [6]), in assay [3] (setting [7]), in assay [4] (setting [8]), in assay [4] (setting [9]), in assay [5] (setting [10]) and in assay [5] (setting [11]) was 76 to 100% in each case.
As to `CO[C@H]1C[C@@H](Nc2nc(-c3nccn3C)nc3sc(-c4cn(C)cn4)c(-c4ccccc4)c23)C1` [Example 2, N-((1s,3s)-3-methoxycyclobutyl)-2-(1-methyl-1H-imidazol-2-yl)-6-(1-methyl-1H-imidazol-4-yl)-5-phenylthieno[2,3-d]pyrimidin-4-amine], the “% inh of ERK1/2 phosphorylation in PANC-1” value in assay [1] is listed as “C (51-75% inhibition)”. For the same compound, in assay [2], the “% inh of AKT phosphorylation in PANC-1” value is 0 (0% inhibition). Further, the inhibition at 20 µM in assay [3] (setting [6]) was 76 to 100%; in assay [3] (setting [7]), 76 to 100%; in assay [4] (setting [8]), 51 to 75%; in assay [4] (setting [9]) it was 51 to 75%; in assay [5] (setting [10]), 76 to 100%; in assay [5] (setting [11]), 76 to 100%.
